Experimental data: patent publication US9395368B2, “Methods, agents and peptides for inducing an immune response to matrix metalloproteinase-2 expressing tumors” (New York University, priority 2010, dated 2016)

Test system: MMP-2-specific CD4+ T cell clones
Experiment: Epitope specificity of MMP-2-specific CD4+ T cell clones with individual peptides (ELISA)
Type: cell-based, human
Conditions: individual peptides 2 μM; TNFα, IL-4 and IFNγ production
Method: (A) MMP-2-specific CD4^+ T cell clones were generated and characterized as described in Experimental Procedures. Clone HD9828/52 is shown as a representative example. Epitope specificities were assessed after overnight stimulation with individual peptides (2 μM). IFNγ, TNFα and IL-4 release was measured by ELISA. (B) All MMP-2-specific CD4^+ T cell clones were characterized by staining for CD4, CD8 and TCR Vβ chain expression. Clone HD9828/52 is shown as a representative example. (C) To establish HLA class-II isotype restriction, CD4^+ T cell clones were stimulated by corresponding peptides in the absence or presence of blocking mAb (10 μg/mL) for HLA-DP, HLA-DQ or HLA-DR and IFNγ release was measured by ELISA. (D) Purified CD4^+/CD25^− cells were stimulated for 12 days by autologous DCs incubated with MMP-2 protein (10 μM) and subsequently washed. MMP-2-specific CD4^+ T cells were detected by intracellular staining of IFNγ, TNFα and IL-4 after 6 hours of stimulation with MMP-2 peptide pool (2 μM). Numbers in the upper right quadrants are the percentages of each population.
All 19 MMP-2-specific CD4^+ T cell clones were characterized for epitope specificity by testing clone responses to every peptide separately. TCR Vβ expression was assessed by surface staining HLA class-II isotype restriction was determined by using blocking mAb to HLA-DP, -DQ and -DR. Results listed for the T cell clone HD9828/MC1/52 are shown in FIG. 1 and FIG. 11, and are highlighted in bold italics.
T Cell culture, stimulation and priming. Peripheral blood mononuclear cells (PBMCs) were purified from healthy donor-(HD) or cord blood donor-(CB) derived buffy coats (New York Blood Center) by Ficoll-Paque Plus (GE Healthcare) centrifugation. CD4^+/CD25^− cells were enriched (>90%) by magnetic cell sorting (Miltenyi Biotec) and primed/stimulated for 12-15 days either with irradiated (35Gy) autologous CD4^− cells or with autologous mature DCs in IMDM (GIBCO) supplemented with 1 mM HEPES (Life Technologies), 2 mM L-glutamine (Sigma), […] (Sigma) and 5% heat inactivated pooled human serum (PHS; Valley Biomedical) in the presence of rhIL-2 (10 UI/mL) and IL7 (5 ng/mL) (R&D Systems). Antigen presenting cells (CD4^− cells or DCs) were loaded either with peptides (2 μM) or with the MMP-2 protein (10 μg/mL) for 2 and 5 h, respectively. DCs were matured using the TLR3 agonist poly(I:C) at 5 μg/mL/10^6 DCs (Amersham). To generate T cell clones, we originally relied on our published methodology (Godefroy et al., 2006; Godefroy et al., 2007; the entire contents of each of which is incorporated herein by reference), involving enrichment of IFNγ-secreting cells upon short-term culture and peptide stimulation to generate MMP-2 responsive clones. Briefly, CD4^+ T cells were stimulated by CD4^− cells irradiated and pulsed with peptides for 12 days in the presence of rhIL-2 and rhIL-7. CD4^+ T cells were then restimulated with peptides for 3 hours before capturing IFNγ-secreting specific cells using a bispecific antibody coating T cells and capturing produced IFNγ. Positive cells were purified magnetically before being cloned. Although MMP-2-specific cells could be isolated, it was realized that IFNγ secretion was marginal compared to their secretion of IL-4 and TNFα. IFNγ-secreting cells in response to MMP-2 peptide pool were enriched by cytokine-guided magnetic cell sorting (Miltenyi Biotec) as described above and cloned the following day by limiting dilution in the presence of irradiated allogeneic PBMCs, 1 μg/mL phytohemagglutinin-L (Sigma) and 150 UI/mL rhIL-2. Tumor infiltrating lymphocytes (TILs) were provided by Pr. F. Jotereau and B. Dréno. They were obtained from tumor-invaded lymph nodes of melanoma patients (stage Mb) and expanded ex vivo. These patients received autologous TILs and IL-2 infusions in a clinical trial (Labarriere et al., 2002). […]

Sequence: AFNWSKNKKTYIFAGDKFWR (listed as Homo sapiens) [P571-590]
- recognition by CD4+ T cell clones: recognized

Sequence: ESCTSAGRSDGKMWCATTAN (listed as Homo sapiens) [P361-380]
- recognition by CD4+ T cell clones: recognized

Sequence: FFKGAYYLKLENQSLKSVKF (listed as Homo sapiens) [P631-650]
- recognition by CD4+ T cell clones: recognized

Sequence: GCLLSHAAAAPSPIIKFPGD (listed as Homo sapiens) [P21-40]
- recognition by CD4+ T cell clones: recognized

Sequence: GFPKLIADAWNAIPDNLDAV (listed as Homo sapiens) [P601-620]
- recognition by CD4+ T cell clones: recognized

Sequence: GYPKPLTSLGLPPDVQRVDA (listed as Homo sapiens) [P551-570]
- recognition by CD4+ T cell clones: recognized

Sequence: MEALMARGALTGPLRALCLL (listed as Homo sapiens) [P1-20]
- recognition by CD4+ T cell clones: recognized

Sequence: RIHDGEADIMINFGRWEHGD (listed as Homo sapiens) [P161-180]
- recognition by CD4+ T cell clones: recognized

Sequence: TGPLRALCLLGCLLSHAAAA (listed as Homo sapiens) [P11-30]
- recognition by CD4+ T cell clones: recognized

Sequence: VAPKTDKELAVQYLNTFYGC (listed as Homo sapiens) [P41-60]
- recognition by CD4+ T cell clones: recognized

Sequence: VDLQGGGHSYFFKGAYYLKL (listed as Homo sapiens) [P621-640]
- recognition by CD4+ T cell clones: recognized
